Results on 10 molecules are retold here after BindingDB's records for doi:10.1021/jm00113a023 (Abbott Laboratories, 1991).

*1 amine or outer side, *2 acyl side, *3 side chain or, on linkers, in order; H or OH if unused. Where a SMILES comes first, the peptide text is derived from it. Side-chain parts run from the residue outwards. [ ]: non-standard residue; d: D form. The star is where a group is joined. NH(1-naphthyl) = c1ccc2c(N*)cccc2c1; NHPh(4-CF3) = FC(F)(F)c1ccc(N*)cc1; hCit = NC(=O)NCCCC[C@H](N)C(=O)O; NH(2-Me-phenyl) = Cc1ccccc1N*; 3Abz = Nc1cccc(C(=O)O)c1; Orn = NCCC[C@H](N)C(=O)O; βNA = c1ccc2cc(N*)ccc2c1; Boc = CC(C)(C)OC(=O)*; X1 = Clc1cccc(Cl)c1N*; X7 = Clc1cccc(N*)c1Cl; CO = O=C([*:1])[*:2]; X2 = CC(C)c1ccccc1N*

One may read the IC50 as the concentration that inhibits the measured activity by half. A higher IC50 goes with weaker potency in that assay.

The target of the first assay is Gastrin/cholecystokinin type B receptor (Cavia porcellus). In words: Binding affinity for Cholecystokinin type B receptor in guinea pig cortex by using [125I]BH-CCK-8 as radioligand.
Turning to `Cc1ccccc1NC(=O)NCCC[C@H](NC(=O)[C@H](Cc1c[nH]c2ccccc12)NC(=O)OC(C)(C)C)C(=O)N[C@@H](CC(=O)O)C(=O)N[C@@H](Cc1ccccc1)C(N)=O` [3-[2-[2-tert-Butoxycarbonylamino-3-(1H-indol-3-yl)-propionylamino]-5-(3-o-tolyl-ureido)-pentanoylamino]-N-(1-carbamoyl-2-phenyl-ethyl)-succinamic acid] (Boc-W[Orn]([CO-NH(2-Me-phenyl)])DF-NH2), the IC50 was found to be 15 µM.

As for `CC(C)(C)OC(=O)N[C@@H](Cc1c[nH]c2ccccc12)C(=O)N[C@@H](CCCCNC(=O)Nc1cccc2ccccc12)C(=O)N[C@@H](CC(=O)O)C(=O)N[C@@H](Cc1ccccc1)C(N)=O` [3-[2-[2-tert-Butoxycarbonylamino-3-(1H-indol-3-yl)-propionylamino]-6-(3-naphthalen-1-yl-ureido)-hexanoylamino]-N-(1-carbamoyl-2-phenyl-ethyl)-succinamic acid] (Boc-WK([CO-NH(1-naphthyl)])DF-NH2), the IC50 worked out at 11 µM. In turn, `CC(C)(C)OC(=O)N[C@@H](Cc1c[nH]c2ccccc12)C(=O)N[C@@H](CCCCNC(=O)Nc1ccc2ccccc2c1)C(=O)N[C@@H](CC(=O)O)C(=O)N[C@@H](Cc1ccccc1)C(N)=O` [3-[2-[2-tert-Butoxycarbonylamino-3-(1H-indol-3-yl)-propionylamino]-6-(3-naphthalen-2-yl-ureido)-hexanoylamino]-N-(1-carbamoyl-2-phenyl-ethyl)-succinamic acid] (Boc-WK([CO-βNA])DF-NH2) came in with an IC50 of 3.2 µM.

With `CC(C)(C)OC(=O)N[C@@H](Cc1c[nH]c2ccccc12)C(=O)N[C@@H](CCCCNC(=O)Nc1c(Cl)cccc1Cl)C(=O)N[C@@H](CC(=O)O)C(=O)N[C@@H](Cc1ccccc1)C(N)=O` [3-{2-[2-tert-Butoxycarbonylamino-3-(1H-indol-3-yl)-propionylamino]-6-[3-(2,6-dichloro-phenyl)-ureido]-hexanoylamino}-N-(1-carbamoyl-2-phenyl-ethyl)-succinamic acid] (Boc-WK([CO-X1])DF-NH2), the IC50 was 7 µM.

For the molecule `CC(C)c1ccccc1NC(=O)NCCCC[C@H](NC(=O)[C@H](Cc1c[nH]c2ccccc12)NC(=O)OC(C)(C)C)C(=O)N[C@@H](CC(=O)O)C(=O)N[C@@H](Cc1ccccc1)C(N)=O` [3-{2-[2-tert-Butoxycarbonylamino-3-(1H-indol-3-yl)-propionylamino]-6-[3-(2-isopropyl-phenyl)-ureido]-hexanoylamino}-N-(1-carbamoyl-2-phenyl-ethyl)-succinamic acid] (Boc-WK([CO-X2])DF-NH2), the IC50 amounted to 5.7 µM. `CC(C)(C)OC(=O)N[C@@H](Cc1c[nH]c2ccccc12)C(=O)N[C@@H](CCCCNC(=O)Nc1ccc(C(F)(F)F)cc1)C(=O)N[C@@H](CC(=O)O)C(=O)N[C@@H](Cc1ccccc1)C(N)=O` [3-{2-[2-tert-Butoxycarbonylamino-3-(1H-indol-3-yl)-propionylamino]-6-[3-(4-trifluoromethyl-phenyl)-ureido]-hexanoylamino}-N-(1-carbamoyl-2-phenyl-ethyl)-succinamic acid] (Boc-WK([CO-NHPh(4-CF3)])DF-NH2) showed an IC50 of 0.85 µM.

As to `CC(C)(C)OC(=O)N[C@@H](Cc1c[nH]c2ccccc12)C(=O)N[C@@H](CCCCNC(N)=O)C(=O)N[C@@H](CC(=O)O)C(=O)N[C@@H](Cc1ccccc1)C(N)=O` [3-{2-[2-tert-Butoxycarbonylamino-3-(1H-indol-3-yl)-propionylamino]-6-ureido-hexanoylamino}-N-(1-carbamoyl-2-phenyl-ethyl)-succinamic acid] (Boc-W[hCit]DF-NH2), the IC50 worked out at 1 µM.

Another assay has the same target. The assay is described as follows: Binding affinity towards cholecystokinin type B receptor in guinea pig cortex by using [125I]BH-CCK-8 as radioligand.
Take `COC(=O)c1cccc(NC(=O)NCCCC[C@H](NC(=O)[C@H](Cc2c[nH]c3ccccc23)NC(=O)OC(C)(C)C)C(=O)N[C@@H](CC(=O)O)C(=O)N[C@@H](Cc2ccccc2)C(N)=O)c1` (Boc-WK([CO-3Abz-OMe])DF-NH2): the IC50 stood at 1.4 µM. `CC(C)(C)OC(=O)N[C@@H](Cc1c[nH]c2ccccc12)C(=O)N[C@@H](CCCCNC(=O)Nc1cccc(Cl)c1Cl)C(=O)N[C@@H](CC(=O)O)C(=O)N[C@@H](Cc1ccccc1)C(N)=O` [3-{2-[2-tert-Butoxycarbonylamino-3-(1H-indol-3-yl)-propionylamino]-6-[3-(2,3-dichloro-phenyl)-ureido]-hexanoylamino}-N-(1-carbamoyl-2-phenyl-ethyl)-succinamic acid] (Boc-WK([CO-X7])DF-NH2): the IC50 stood at 3 µM.

For a further assay the target is unchanged. The assay is described as follows: Binding affinity for Cholecystokinin type B receptor in guinea pig cortex by using [125I]BH-CCK-8 as radioligand. This is another data set of the same source.
Consider `CC(C)(C)OC(=O)N[C@@H](Cc1c[nH]c2ccccc12)C(=O)N[C@@H](CCCC/N=C(\S)Nc1ccccc1Cl)C(=O)N[C@@H](CC(=O)O)C(=O)N[C@@H](Cc1ccccc1)C(N)=O`, for which the IC50 is 2.9 µM.
